Here are results for 13 compounds from ChEMBL document CHEMBL1141382, “Studies leading to potent, dual inhibitors of Bcl-2 and Bcl-xL” (J Med Chem, 2007).

In assay [1] the target is T1, Bcl-2-like protein 1 (Homo sapiens, UniProt Q07817). Put plainly: Displacement of Bad-derived peptide from Bcl-xL by FPA in presence of 10% human serum.
The subject of assay [2] is FL5.12. Put plainly: Reversal of cytokine withdrawal protection in IL3 dependent Bcl-xL overexpressing mouse FL5.12 cells in presence of 3% FBS. In kind it is functional.
Assay [3] can be described thus: Reversal of cytokine withdrawal protection in IL3 dependent Bcl-xL overexpressing mouse FL5.12 cells.
The target of assay [4] is T1, Bcl-2-like protein 1. Put plainly: Displacement of Bad-derived peptide from Bcl-xL by fluorescence polarization assay.
In assay [5] the target is Apoptosis regulator Bcl-2 (Homo sapiens, UniProt P10415). Put plainly: Displacement of Bax-derived peptide from Bcl2 by fluorescence polarization assay. A general note: Fluorescence polarisation rises when a labelled molecule tumbles more slowly, as on binding a larger partner.
Apoptosis regulator Bcl-2, sequence (P10415 whole entry): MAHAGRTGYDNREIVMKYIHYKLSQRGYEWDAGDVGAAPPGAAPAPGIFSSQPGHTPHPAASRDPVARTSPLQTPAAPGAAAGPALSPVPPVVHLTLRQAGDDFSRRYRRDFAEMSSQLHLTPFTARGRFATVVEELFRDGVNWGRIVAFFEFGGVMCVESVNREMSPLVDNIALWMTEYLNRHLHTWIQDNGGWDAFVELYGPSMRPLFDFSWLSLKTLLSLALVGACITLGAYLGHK

T1 sequence (Q07817 whole entry): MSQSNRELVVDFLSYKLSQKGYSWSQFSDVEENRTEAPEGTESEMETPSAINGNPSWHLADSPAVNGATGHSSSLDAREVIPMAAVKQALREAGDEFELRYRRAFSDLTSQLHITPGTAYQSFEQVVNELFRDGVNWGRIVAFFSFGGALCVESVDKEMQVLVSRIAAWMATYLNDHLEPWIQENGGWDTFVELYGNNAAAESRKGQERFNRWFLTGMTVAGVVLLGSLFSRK

One may read the IC50 as the point on the concentration scale where inhibition reaches its midpoint. In general, EC50 refers to the concentration needed to bring the measured effect to its halfway point. For `CN(C)CC[C@H](CSc1ccccc1)Nc1ccc(S(=O)(=O)NC(=O)c2ccc(N3CCC(C)(C)CC3)cc2)cc1[N+](=O)[O-]`, the IC50 in assay [1] was determined as 360 nM. The EC50 in assay [2] amounted to 5100 nM; in assay [3], 470 nM.

Usually Ki stands for a measure of affinity in units of concentration, obtained from inhibition or displacement. Higher therefore signals weaker binding. For `CN(C)CC[C@H](CSc1ccccc1)Nc1ccc(S(=O)(=O)NC(=O)c2ccc(N3CCN(Cc4ccccc4-c4ccc(F)cc4)CC3)cc2)cc1[N+](=O)[O-]`, the Ki in assay [4] is below 0.5 nM; in assay [5] it was below 1 nM. In assay [1], the 50% inhibitory concentration (IC50) was below 60 nM. The 50% effective concentration (EC50) in assay [2] worked out at 710 nM.

On to `CN(C)CC[C@H](CSc1ccccc1)Nc1ccc(S(=O)(=O)NC(=O)c2ccc(N3CCN(Cc4ccccc4-c4cccc(Cl)c4)CC3)cc2)cc1[N+](=O)[O-]`, for which the Ki in assay [4] was below 0.5 nM; in assay [5], 16.9 nM. Also, the IC50 in assay [1] was 140 nM. Besides, the EC50 in assay [2] was 2800 nM.

In the case of `CN(C)CC[C@H](CSc1ccccc1)Nc1ccc(S(=O)(=O)NC(=O)c2ccc(N3CCN(Cc4ccccc4-c4ccccc4Cl)CC3)cc2)cc1[N+](=O)[O-]`, the inhibition constant Ki in assay [4] was below 0.5 nM; in assay [5], below 1 nM. For the same compound, the concentration for half-maximal inhibition (IC50) in assay [1] was below 60 nM. The EC50 in assay [2] came out at 2500 nM.

As for `CN(C)CC[C@H](CSc1ccccc1)Nc1ccc(S(=O)(=O)NC(=O)c2ccc(N3CCN(Cc4ccccc4-c4ccc(S(C)(=O)=O)cc4)CC3)cc2)cc1[N+](=O)[O-]`, the IC50 was 9.1 nM in assay [4] and below 60 nM in assay [1]. In assay [5], this compound had an inhibitory constant (Ki) below 1 nM. In assay [2], the concentration giving a half-maximal response (EC50) came to 6700 nM.

With `CN(C)CC[C@H](CSc1ccccc1)Nc1ccc(S(=O)(=O)NC(=O)c2ccc(N3CCN(Cc4ccccc4-c4ccccc4)CC3)cc2)cc1[N+](=O)[O-]`, the Ki in assay [4] is below 0.5 nM; in assay [5], below 1 nM. Further, the IC50 in assay [1] is below 60 nM. Further, in assay [2], the EC50 is 1200 nM.

With `CN(C)CC[C@H](CSc1ccccc1)Nc1ccc(S(=O)(=O)NC(=O)c2ccc(N3CCN(Cc4ccccc4-c4ccc(-c5ccccc5)cc4)CC3)cc2)cc1[N+](=O)[O-]`, the Ki in assay [4] was 1 nM; in assay [5] it was below 1 nM. In assay [1], the concentration for half-maximal inhibition (IC50) amounted to 100 nM. The EC50 in assay [2] worked out at 120 nM.

Consider `CN(C)CC[C@H](CSc1ccccc1)Nc1ccc(S(=O)(=O)NC(=O)c2ccc(N3CCN(Cc4ccccc4-c4ccc(C(F)(F)F)cc4)CC3)cc2)cc1[N+](=O)[O-]`, for which the Ki in assay [4] was below 0.5 nM; in assay [5], below 1 nM. Also, in assay [1], the half-inhibitory concentration (IC50) is below 60 nM. Besides, the concentration for a half-maximal effect (EC50) in assay [2] came to 120 nM.

Regarding `COc1cccc(-c2ccccc2CN2CCN(c3ccc(C(=O)NS(=O)(=O)c4ccc(N[C@H](CCN(C)C)CSc5ccccc5)c([N+](=O)[O-])c4)cc3)CC2)c1`, the Ki in assay [4] was below 0.5 nM; in assay [5], below 1 nM. In addition, in assay [1], the IC50 was determined as 178 nM. Further, in assay [2], the EC50 amounted to 4500 nM.

Take `COc1ccc(-c2ccccc2CN2CCN(c3ccc(C(=O)NS(=O)(=O)c4ccc(N[C@H](CCN(C)C)CSc5ccccc5)c([N+](=O)[O-])c4)cc3)CC2)cc1`: the inhibitory constant (Ki) in assay [4] was below 0.5 nM; in assay [5] it was below 1 nM. Moreover, in assay [1], the IC50 was below 60 nM. Further, the EC50 in assay [2] was 700 nM.

As for `Cc1ccccc1CN1CCN(c2ccc(C(=O)NS(=O)(=O)c3ccc(N[C@H](CCN(C)C)CSc4ccccc4)c([N+](=O)[O-])c3)cc2)CC1`, the inhibition constant Ki in assay [4] is 3 nM; in assay [5] it was 4.5 nM. For the same compound, the half-maximal inhibitory concentration (IC50) in assay [1] worked out at 140 nM.

In the case of `CN(C)CC[C@H](CSc1ccccc1)Nc1ccc(S(=O)(=O)NC(=O)c2ccc(N3CCN(Cc4ccccc4S(C)(=O)=O)CC3)cc2)cc1[N+](=O)[O-]`, the Ki in assay [4] worked out at 0.9 nM; in assay [5] it was 4.6 nM. Further, the half-maximal inhibitory concentration (IC50) in assay [1] was found to be 170 nM.

Take `CN(C)CC[C@H](CSc1ccccc1)Nc1ccc(S(=O)(=O)NC(=O)c2ccc(N3CCN(Cc4ccccc4-c4ccc(Cl)cc4)CC3)cc2)cc1[N+](=O)[O-]` [ABT 737]: the concentration for a half-maximal effect (EC50) in assay [2] was found to be 220 nM.
